According to patent publication US20250161453A1, “LIGHT-ACTIVATABLE, SUSTAINED-EXPOSURE ETHANOL INJECTION” (University of Maryland, College Park, priority 2022, published 2025):

Tests used:
[1] = Stability of BPD stock solution; assay type: physicochemical; conditions: 5 mg BPD powder in 1 mL dimethyl sulfoxide, wrapped in aluminum foil
Experimental: To prepare the BPD stock solution, 5 mg of the BPD powder was dissolved with 1 mL of dimethyl sulfoxide in a 2 mL cryovial container. The molarity of the sample was confirmed with a microplate reader using the established molar extinction coefficient of BPD in dimethyl sulfoxide (DMSO; ˜34,895 M^−1 cm^−1 at 687 nm). The container was wrapped in aluminum foil and stored in a −20° C. freezer.

[2] = Singlet oxygen production (Singlet Oxygen Sensor Green) in phantom punch biopsies; conditions: 20 μM
Experimental: For the tumor-mimicking mechanical phantom, 5 mm-deep portions of the phantom were removed via a biopsy tool with a diameter of 6.4 mm and placed into a 96-well, clear flat-bottom microplate. Singlet oxygen production was determined using Singlet Oxygen Sensor Green (SOSG) and a microplate reader before irradiation. The SOSG fluorescence was measured with excitation/emission wavelengths of 504/525 nm. The samples were then irradiated with a 690 nm continuous-wave laser at various radiant exposures, and singlet oxygen production was measured using SOSG and the microplate reader after irradiation. The difference between the obtained SOSG fluorescence values between pre- and post-irradiance samples constituted the relative singlet oxygen production of that particular punch biopsy sample.
Table 4 details a strategy for measuring the singlet oxygen production of a sample (e.g., phantom specimen from a punch biopsy). […] 0 μM (EC-Ethanol only), phantom only, and BPD only (dissolved in DMSO) groups were included as negative controls, while the Rose Bengal group (type II photosensitizer capable of generating singlet oxygen via 525 nm light absorption) was included as a positive control. This strategy can be applied to estimate the relative production of singlet oxygen of photosensitizers in other liquid needle injections.
Upon red light (690 nm) activation of BPD-EC-EtOH, the fluorescence signal generated from BPD can be used for imaging of the depot, as shown in FIG. 6E.

Compound | stability of reconstituted stock solution (in words) [1] | Post-irradiation RFU ([2]; SOSG fluorescence 504/525 nm) [RFU] | Pre-irradiation RFU ([2]; SOSG fluorescence 504/525 nm) [RFU] | Relative singlet oxygen production (SOSG fluorescence difference) ([2]; difference post- minus pre-irradiation) [RFU]
benzoporphyrin derivative [BPD] | generally stable at −20 °C for several months |  |  | 
O=C([O-])c1c(Cl)c(Cl)c(Cl)c(Cl)c1-c1c2cc(I)c(=O)c(I)c-2oc2c(I)c([O-])c(I)cc12.[Na+].[Na+] [Rose Bengal] |  | 64703 | 18345 | 46358
